Measured values taken from patent publication US20230158025A1 (UNIVERSITY OF UTAH RESEARCH FOUNDATION, priority 2020, published 2023).
Read-outs that look alike come from different tables or passages of the source.

Experiments:
[1] = aqueous kinetic solubility
[2] = target: T1, hGALK1m (Homo sapiens, UniProt P51570, E253A/K252A); assay: in vitro hGALK1 activity assay of the structure-based optimisation (Example 12, Tables 17-20); format: biochemical
T1 construct: made in house; host or cells: E. coli HMS174
Description: In vitro hGALK1 activity assays were performed as previously described. Liu et al., Bioorg. Med. Chem. Lett. 25(3): 721-727 (2015), which is incorporated by reference herein for the specific teachings thereof. The biochemical assay was performed by coupling the activity of recombinant human or mouse GALK1 to the Kinase-Glo Plus luminescent ATP detection kit, using ATP depletion as a measure of GALK1 turnover. Specifically, three μL/well of ATP substrate solution (35 μM ATP) in assay buffer (20 mM HEPES pH 8.0, 5 mM MgCl2, 60 mM NaCl, 1 mM DTT, 0.01% BSA final concentration) was dispensed into 1536-well assay plates (Greiner, white solid-bottom medium-binding plates). Aliquots of compound (23 nL solubilized in DMSO) were transferred to the assay plates using a Kalypsys 1536-well pintool such that 11 concentrations with 1/3 dilutions ranging from 57.4 μM-0.97 nM are tested. One μL/well of GALK-galactose solution (5 nM GALK1, 100 μM galactose) in assay buffer was then added, yielding a final reaction volume of 4 μL/well. Following a 1-hour room temperature incubation, 4 μL of Kinase-Glo Plus detection reagent was added to provide an ATP-dependent luminescent readout (final assay volume: 8 μL/well). Luminescence was detected using a ViewLux plate reader (PerkinElmer) after a 10-minute incubation, using a 1 second exposure time and 2× binning.
The in vitro hGALK1 activity assay was performed as previously described. Liu et al., Bioorg. Med. Chem. Lett. 25(3): 721-727 (2015). For the measurement of cellular Gal-1P reduction, compounds at different concentrations were added to cultured patient fibroblast at 80% confluency. After incubating the compounds for 16 hours, 10 mM galactose was added to the culture. After another 4 hours, cells were washed with cold PBS buffer 3× and harvested for gal-1P measurement, according to the previously published method. Liu et al., Bioorg. Med. Chem. Lett. 25(3): 721-727 (2015).

[3] = target: recombinant mouse GALK1 (Mus musculus, UniProt Q9R0N0); assay: mGALK1 biochemical activity assay (Kinase-Glo Plus, ATP depletion)
Procedure, shortened: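 Recombinant GALK1 (5 nM) with 100 μM galactose; GALK1 turnover read as ATP depletion by Kinase-Glo Plus luminescence. Reaction ran 1 h at room temperature before detection reagent was added.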

[4] = target: recombinant human GALK1 (Homo sapiens, UniProt P51570); assay: hGALK1 biochemical activity assay (Kinase-Glo Plus, ATP depletion)
Procedure, shortened: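 Turnover is measured as ATP depletion by Kinase-Glo Plus luminescence after a 1 h room-temperature reaction. Compounds span 11 concentrations, 57.4 μM–0.97 nM, in final 20 mM HEPES pH 8.0 with 5 mM MgCl2. The substrate solution held 35 μM ATP; the added solution held 5 nM human or mouse GALK1 and 100 μM galactose.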

[5] = rat microsomal stability (RLM); settings: for half-life: rat, rat liver microsomes
[6] = PAMPA permeability
[7] = Tables 18-19, read-out: Max Response (%)
[8] = Tables 18-20 and text of Example 12
[9] = Tables 2-15, 35 μM ATP, 100 μM galactose, 1 h, bracketed figure after some values is undefined and not reported, read-out: mGALK IC50
[10] = recombinant mouse GALK1, Kinase-Glo Plus ATP depletion, read-out: mGALK
[11] = Tables 2-15, 35 μM ATP, 100 μM galactose, 1 h, bracketed figure after some values (e.g. −1.2) is undefined and not reported, read-out: hGALK IC50
[12] = PAMPA, ADME P: PAMPA permeability (class), Tables 17-19, class probably colour-coded, colour lost
[13] = 1 h, Table 17, read-out: Efficacy
[14] = Table 17, amide group optimization, no unit in table
[15] = recombinant human GALK1, Kinase-Glo Plus ATP depletion, read-out: hGALK
[16] = Tables 18-19 and text of Example 12
[17] = PAMPA, Perm. (1 × 10^−6 cm/sec)

Sequence of recombinant human GALK1 (P51570 whole entry): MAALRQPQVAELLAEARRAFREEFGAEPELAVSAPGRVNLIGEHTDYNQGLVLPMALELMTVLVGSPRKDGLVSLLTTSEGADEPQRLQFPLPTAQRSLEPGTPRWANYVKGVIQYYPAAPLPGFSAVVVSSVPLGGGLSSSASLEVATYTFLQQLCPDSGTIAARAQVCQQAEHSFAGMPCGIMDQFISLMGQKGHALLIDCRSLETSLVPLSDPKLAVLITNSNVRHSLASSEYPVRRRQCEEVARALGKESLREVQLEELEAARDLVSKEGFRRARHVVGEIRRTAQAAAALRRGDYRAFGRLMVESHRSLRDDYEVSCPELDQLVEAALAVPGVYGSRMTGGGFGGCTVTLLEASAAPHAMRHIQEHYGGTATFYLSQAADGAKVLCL
Sequence of recombinant mouse GALK1 (Q9R0N0 whole entry): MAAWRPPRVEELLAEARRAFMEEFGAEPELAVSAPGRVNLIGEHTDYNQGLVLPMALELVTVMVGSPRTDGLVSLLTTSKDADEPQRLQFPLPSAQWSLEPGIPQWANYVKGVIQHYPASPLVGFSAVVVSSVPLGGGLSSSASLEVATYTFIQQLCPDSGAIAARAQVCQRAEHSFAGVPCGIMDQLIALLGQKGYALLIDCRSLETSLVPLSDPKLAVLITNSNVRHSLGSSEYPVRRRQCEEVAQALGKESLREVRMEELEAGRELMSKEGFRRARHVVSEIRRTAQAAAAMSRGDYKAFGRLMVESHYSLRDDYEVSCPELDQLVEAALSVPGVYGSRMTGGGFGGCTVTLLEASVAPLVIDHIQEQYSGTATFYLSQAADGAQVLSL
T1 sequence (P51570 whole entry K252A/E253A): as the sequence (P51570 whole entry) above, with K252A, E253A counted along it

For `CC1=C(C(=O)Nc2cc(C(=O)O)ccn2)C(c2ccccc2Br)N=C(Nc2nc3ccc(F)cc3o2)N1` (stereo not drawn) [Compound 75, 2-(4-(2-bromophenyl)-2-((6-fluorobenzo[d]oxazol-2-yl)amino)-6-methyl-1,4-dihydropyrimidine-5-carboxamido)isonicotinic acid], the “Sol.” value [1] was 36.0 µg/mL, the “change of potency versus parent compound (in words)” value (from here on “change”) [2] was “little impact on the potency” and the Emax [2, 7] was 100%. It also gave an IC50 [2, 8] of 0.235 µM, an IC50 [3, 9] of 3.85 µM and an IC50 [3, 10] of 3.85 µM. The IC50 [4, 11] was 0.54 µM, the “Metab. Stabil. (m)” value ([5]; microsomal half-life) was over 30 m and the half-life [5] was under 10 min. The Papp [6, 12] was under 100 nm/s.

With `CC1=C(C(=O)NCc2cncn2C)C(c2ccccc2Cl)N=C(Nc2nc3ccccc3o2)N1` (stereo not drawn) [Compound 230, 2-(benzo[d]oxazol-2-ylamino)-4-(2-chlorophenyl)-6-methyl-N-((1-methyl-1H-imidazol-5-yl)methyl)-1,4-dihydropyrimidine-5-carboxamide] the “Sol.” value ([1]; aqueous kinetic solubility) was 42.0 µg/mL, the Emax [2, 13] was 98% and the IC50 [2, 14] was 1.4 µM. It also gave an IC50 [3, 9] of 6.85 µM, an IC50 [3, 10] of 6.85 µM and an IC50 [4, 15] of 1.72 µM. The “Metab. Stabil. (m)” value ([5]; microsomal stability half-life) was 8.8722 m, the half-life [5] was under 10 min and the “Perm. (1 × 10^−6 cm/sec)” value ([6]; PAMPA) was 98.8 1 × 10^−6 cm/sec. The Papp [6, 12] was under 100 nm/s.

For `CC1=C(C(=O)NCc2cn(C)cn2)C(c2ccccc2Cl)N=C(Nc2nc3ccccc3o2)N1` (racemic) [Compound 233, 2-(benzo[d]oxazol-2-ylamino)-4-(2-chlorophenyl)-6-methyl-N-((1-methyl-1H-imidazol-4-yl)methyl)-1,4-dihydropyrimidine-5-carboxamide], the “Sol.” value ([1]; aqueous kinetic solubility) was 26.6 µg/mL, the Emax [2, 13] was 90% and the IC50 [2, 16] was 0.77 µM. The IC50 [3, 9] was 7.69 µM, the IC50 [3, 10] was 7.69 µM and the IC50 [4, 11] was 1.09 µM. For the same compound, the IC50 [4, 15] was 1.09 µM, the “Metab. Stabil. (m)” value ([5]; microsomal stability half-life) was 14.56 m and the half-life [5] was under 10 min. It also gave a Papp [6, 12] of under 100 nm/s and a Papp [6, 17] of 8680 nm/s.

For `CC1=C(C(=O)Nc2cc(C(=O)O)ccn2)C(c2cccc(C(F)(F)F)c2Cl)N=C(Nc2nc3ccc(F)cc3o2)N1` (stereo not drawn) [Compound 51, 2-(4-(2-chloro-3-(trifluoromethyl)phenyl)-2-((6-fluorobenzo[d]oxazol-2-yl)amino)-6-methyl-1,4-dihydropyrimidine-5-carboxamido)isonicotinic acid], the “Sol.” value [1] was 70.1 µg/mL, the “change” value [2] was “compromised the potency” and the Emax [2, 7] was 97%. It also gave an IC50 [2, 16] of 2.4 µM, an IC50 [3, 9] of 27.3 µM and an IC50 [3, 10] of 27.3 µM. For the same compound, the IC50 [4, 11] was 19.3 µM, the IC50 [4, 15] was 19.3 µM and the “Metab. Stabil. (m)” value ([5]; microsomal half-life) was over 30 m. It also gave a half-life [5] of under 10 min and a Papp [6, 12] of under 100 nm/s.

With `CC1=C(C(=O)Nc2cc(C(=O)O)ccn2)C(c2ccc(Cl)cc2Cl)N=C(Nc2nc3ccc(F)cc3o2)N1` (stereo not drawn) [Compound 47, 2-(4-(2,4-dichlorophenyl)-2-((6-fluorobenzo[d]oxazol-2-yl)amino)-6-methyl-1,4-dihydropyrimidine-5-carboxamido)isonicotinic acid] the “Sol.” value [1] was under 1 µg/mL, the “change” value [2] was “little effect on the potency” and the Emax [2, 7] was 85%. It also gave an IC50 [2, 8] of 0.345 µM, an IC50 [3, 9] of 3.85 µM and an IC50 [3, 10] of 3.85 µM. The IC50 [4, 15] was 1.09 µM, the “Metab. Stabil. (m)” value ([5]; microsomal half-life) was over 30 m and the half-life [5] was under 10 min. For the same compound, the “Perm. (1 × 10^−6 cm/sec)” value [6] was <1 1 × 10^−6 cm/sec and the Papp [6, 12] was under 100 nm/s.

In the case of `CC1=C(C(=O)Nc2ccccc2)C(c2ccccc2Cl)N=C(Nc2nc3ccccc3o2)N1` (stereo not drawn) [Compound 137, 2-(benzo[d]oxazol-2-ylamino)-4-(2-chlorophenyl)-6-methyl-N-phenyl-1,4-dihydropyrimidine-5-carboxamide], the “Sol.” value ([1]; aqueous kinetic solubility) is reported as under 1 µg/mL, the Emax [2, 13] is reported as 57% and the IC50 [2, 14] is reported as 6.9 µM. For the same compound, the Emax [2, 7] was 100%, the IC50 [2, 16] was 0.97 µM and the IC50 [3, 9] was 13.7 µM. The IC50 [3, 10] was 13.7 µM, the IC50 [4, 11] was 10.9 µM and the “Metab. Stabil. (m)” value ([5]; microsomal stability half-life) was 24 m. The half-life [5] was under 10 min and the Papp [6, 12] was under 100 nm/s.

For `CC1=C(C(=O)NCc2cnn(C)c2)C(c2ccc(C)cc2Cl)N=C(Nc2nc3cccc(N)c3o2)N1` (racemic) [Compound 83, 2-((7-aminobenzo[d]oxazol-2-yl)amino)-4-(2-chloro-4-methylphenyl)-6-methyl-N-((1-methyl-1H-pyrazol-4-yl)methyl)-1,4-dihydropyrimidine-5-carboxamide], the “Sol.” value [1] was 4.47 µg/mL, the IC50 [2, 8] was 0.047 µM and the IC50 [3, 9] was 2.17 µM. The IC50 [3, 10] was 2.17 µM, the IC50 [4, 11] was 0.22 µM and the IC50 [4, 15] was 0.22 µM. The “Metab. Stabil. (m)” value ([5]; microsomal half-life) was 14.13 m and the Papp [6, 17] was 253 nm/s.

In the case of `CC1=C(C(=O)Nc2cc(C(=O)O)ccn2)C(c2cccc(C(F)(F)F)c2)N=C(Nc2nc3ccc(F)cc3o2)N1` (stereo not drawn) [Compound 77, 2-(2-((6-fluorobenzo[d]oxazol-2-yl)amino)-6-methyl-4-(3-(trifluoromethyl)phenyl)-1,4-dihydropyrimidine-5-carboxamido)isonicotinic acid], the “Sol.” value [1] is reported as 60.1 µg/mL, the “change” value [2] is reported as “compromised the potency” and the Emax [2, 7] is reported as 90%. For the same compound, the IC50 [2, 16] was over 15 µM, the “mGALK IC50” value ([3]; Tables 2-15, 35 μM ATP, 100 μM galactose, 1 h, bracketed figure after some values is undefined and not reported) was “inactive” and the “mGALK (μM)” value ([3]; recombinant mouse GALK1, Kinase-Glo Plus ATP depletion) was “in- active”. For the same compound, the IC50 [4, 11] was 19.3 µM, the IC50 [4, 15] was 19.3 µM and the “Metab. Stabil. (m)” value ([5]; microsomal half-life) was over 30 m. For the same compound, the half-life [5] was under 10 min, the “Perm. (1 × 10^−6 cm/sec)” value [6] was <1 1 × 10^−6 cm/sec and the Papp [6, 12] was under 100 nm/s.

In the case of `CC1=C(C(=O)Nc2cc(C(=O)O)ccn2)C(c2ccccc2Cl)N=C(Nc2nc3cc(C)ccc3o2)N1` (stereo not drawn) [Compound 4, 2-(4-(2-chlorophenyl)-6-methyl-2-((5-methylbenzo[d]oxazol-2-yl)amino)-1,4-dihydropyrimidine-5-carboxamido)isonicotinic acid], the “Sol.” value [1] is reported as under 1 µg/mL, the “change” value [2] is reported as “slightly improved the potency” and the Emax [2, 7] is reported as 100%. For the same compound, the IC50 [2, 8] was 0.611 µM, the IC50 [3, 9] was 3.06 µM and the IC50 [3, 10] was 3.06 µM. The IC50 [4, 11] was 1.37 µM, the “Metab. Stabil. (m)” value ([5]; microsomal half-life) was over 30 m and the half-life [5] was under 10 min. The “Perm. (1 × 10^−6 cm/sec)” value [6] was <1 1 × 10^−6 cm/sec and the Papp [6, 12] was under 100 nm/s.

In the case of `CC1=C(C(=O)Nc2cc(C(=O)O)ccn2)C(c2ccccc2Cl)N=C(Nc2nc3ccc(C)cc3o2)N1` (stereo not drawn) [Compound 6, 2-(4-(2-chlorophenyl)-6-methyl-2-((6-methylbenzo[d]oxazol-2-yl)amino)-1,4-dihydropyrimidine-5-carboxamido)isonicotinic acid], the “Sol.” value [1] is reported as 34.42 µg/mL, the Emax [2, 7] is reported as 100% and the IC50 [2, 16] is reported as 6.9 µM. For the same compound, the “fold decrease of potency versus parent compound” value ([2]; loss of potency relative to the unsubstituted parent) was about 7 fold, the IC50 [3, 9] was 17.2 µM and the IC50 [3, 10] was 17.2 µM. For the same compound, the IC50 [4, 11] was 5.44 µM, the “Metab. Stabil. (m)” value ([5]; microsomal half-life) was over 30 m and the half-life [5] was under 10 min. For the same compound, the “Perm. (1 × 10^−6 cm/sec)” value [6] was <1 1 × 10^−6 cm/sec and the Papp [6, 12] was under 100 nm/s.

In the case of `COc1cccc(C2N=C(Nc3nc4ccc(F)cc4o3)NC(C)=C2C(=O)Nc2cc(C(=O)O)ccn2)c1Cl` (stereo not drawn) [Compound 52, 2-(4-(2-chloro-3-methoxyphenyl)-2-((6-fluorobenzo[d]oxazol-2-yl)amino)-6-methyl-1,4-dihydropyrimidine-5-carboxamido)isonicotinic acid], the “Sol.” value [1] is reported as over 81 µg/mL, the Emax [2, 7] is reported as 100% and the IC50 [2, 16] is reported as 5.4 µM. For the same compound, the IC50 [3, 9] was 19.3 µM, the IC50 [3, 10] was 19.3 µM and the IC50 [4, 11] was 6.85 µM. For the same compound, the IC50 [4, 15] was 6.85 µM, the “Metab. Stabil. (m)” value ([5]; microsomal half-life) was over 30 m and the half-life [5] was under 10 min. For the same compound, the “Perm. (1 × 10^−6 cm/sec)” value [6] was <1 1 × 10^−6 cm/sec and the Papp [6, 12] was under 100 nm/s.
